Data taken from PubChem BioAssay (NCI).
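Compound exposure: 48 hours, 5 concentrations, 96-well plates. TGI: concentration producing complete growth inhibition.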

What was measured:
Experiment in all cases: inhibition of tumour cell growth, NCI panel, 48 h
[1] = test system: KM20L2 colon
[2] = test system: SR leukemia
[3] = test system: HOP-92 NSCLC
[4] = test system: MOLT-4 leukemia
[5] = test system: EKVX NSCLC
[6] = test system: SF-539 CNS
[7] = test system: MALME-3M melanoma
[8] = test system: OVCAR-4 ovarian
[9] = test system: ACHN renal
[10] = test system: SNB-75 CNS
[11] = test system: RPMI-8226 leukemia
[12] = test system: SF-295 CNS
[13] = test system: RXF-631 renal
[14] = test system: OVCAR-8 ovarian
[15] = test system: NCI-H522 lung
[16] = test system: SF-268 CNS
[17] = test system: HL-60(TB) leukemia
[18] = test system: CCRF-CEM leukemia
[19] = test system: K-562 leukemia
[20] = test system: HOP-62 NSCLC
[21] = test system: IGROV1 ovarian
[22] = test system: COLO 205 colon
[23] = test system: CAKI-1 renal
[24] = test system: SK-MEL-5 melanoma
[25] = test system: DLD-1 colon
[26] = test system: A498 renal
[27] = test system: U251 CNS
[28] = test system: TK-10 renal
[29] = test system: HCT-15 colon
[30] = test system: SK-MEL-2 melanoma
[31] = test system: M14 melanoma
[32] = test system: NCI-H226 lung
[33] = test system: DMS 273 small cell lung
[34] = test system: M19-MEL melanoma
[35] = test system: UACC-62 melanoma
[36] = test system: UO-31 renal
[37] = test system: HOP-18 NSCLC
[38] = test system: HT29 colon
[39] = test system: NCI-H460 lung
[40] = test system: 786-0 renal
[41] = test system: XF 498 CNS
[42] = test system: LXFL 529 NSCLC
[43] = test system: SN12C renal
[44] = test system: OVCAR-5 ovarian
[45] = test system: NCI-H23 lung
[46] = test system: OVCAR-3 ovarian
[47] = test system: SNB-19 CNS
[48] = test system: UACC-257 melanoma
[49] = test system: SW-620 colon
[50] = test system: KM12 colon
[51] = test system: A549 NSCLC
[52] = test system: HCT-116 colon
[53] = test system: SK-MEL-28 melanoma
[54] = test system: DMS 114 small cell lung
[55] = test system: SK-OV-3 ovarian
[56] = test system: SNB-78 CNS
[57] = test system: RXF 393 renal
[58] = test system: LOX IMVI melanoma
[59] = test system: HCC-2998 colon

Measured: TGI

CC1=C(c2cc(C(=O)Nc3nccs3)nc(NC#N)n2)Sc2ccccc2N1
not listed: [54] | [55] | [56] | [57] | [58] | [59]
> 100 µM: all other assays above

CSc1ccc2c(cc1=O)[C@@H](NC(=O)c1ccc(F)cc1)CCc1cc(O)c(O)c(O)c1-2
not listed: [2] | [41]
> 100 µM: all other assays above
